ChEMBL document CHEMBL1201862, “PubChem BioAssay data set” (2004)
Activity calls are given as the source filed them.

Columns and labels:
[1] = viability loss in HeLa cells – cytotoxicity control for MgcRacGAP inhibitor project, dose response (AID 624300); assay type: functional
Fatty acid synthase [2] = molecular target: T1, Fatty acid synthase (Homo sapiens, UniProt P49327); assay: inhibition of human FAS-TE enzyme activity – biochemical, endpoint fluorescence intensity, uHTS hits, dose response (AID 624327); assay type: functional;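 also: fluorescence from hydrolysis of an O-methyl fluorescein acyl ester substrate by the enzyme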
T1 sequence (P49327 whole entry): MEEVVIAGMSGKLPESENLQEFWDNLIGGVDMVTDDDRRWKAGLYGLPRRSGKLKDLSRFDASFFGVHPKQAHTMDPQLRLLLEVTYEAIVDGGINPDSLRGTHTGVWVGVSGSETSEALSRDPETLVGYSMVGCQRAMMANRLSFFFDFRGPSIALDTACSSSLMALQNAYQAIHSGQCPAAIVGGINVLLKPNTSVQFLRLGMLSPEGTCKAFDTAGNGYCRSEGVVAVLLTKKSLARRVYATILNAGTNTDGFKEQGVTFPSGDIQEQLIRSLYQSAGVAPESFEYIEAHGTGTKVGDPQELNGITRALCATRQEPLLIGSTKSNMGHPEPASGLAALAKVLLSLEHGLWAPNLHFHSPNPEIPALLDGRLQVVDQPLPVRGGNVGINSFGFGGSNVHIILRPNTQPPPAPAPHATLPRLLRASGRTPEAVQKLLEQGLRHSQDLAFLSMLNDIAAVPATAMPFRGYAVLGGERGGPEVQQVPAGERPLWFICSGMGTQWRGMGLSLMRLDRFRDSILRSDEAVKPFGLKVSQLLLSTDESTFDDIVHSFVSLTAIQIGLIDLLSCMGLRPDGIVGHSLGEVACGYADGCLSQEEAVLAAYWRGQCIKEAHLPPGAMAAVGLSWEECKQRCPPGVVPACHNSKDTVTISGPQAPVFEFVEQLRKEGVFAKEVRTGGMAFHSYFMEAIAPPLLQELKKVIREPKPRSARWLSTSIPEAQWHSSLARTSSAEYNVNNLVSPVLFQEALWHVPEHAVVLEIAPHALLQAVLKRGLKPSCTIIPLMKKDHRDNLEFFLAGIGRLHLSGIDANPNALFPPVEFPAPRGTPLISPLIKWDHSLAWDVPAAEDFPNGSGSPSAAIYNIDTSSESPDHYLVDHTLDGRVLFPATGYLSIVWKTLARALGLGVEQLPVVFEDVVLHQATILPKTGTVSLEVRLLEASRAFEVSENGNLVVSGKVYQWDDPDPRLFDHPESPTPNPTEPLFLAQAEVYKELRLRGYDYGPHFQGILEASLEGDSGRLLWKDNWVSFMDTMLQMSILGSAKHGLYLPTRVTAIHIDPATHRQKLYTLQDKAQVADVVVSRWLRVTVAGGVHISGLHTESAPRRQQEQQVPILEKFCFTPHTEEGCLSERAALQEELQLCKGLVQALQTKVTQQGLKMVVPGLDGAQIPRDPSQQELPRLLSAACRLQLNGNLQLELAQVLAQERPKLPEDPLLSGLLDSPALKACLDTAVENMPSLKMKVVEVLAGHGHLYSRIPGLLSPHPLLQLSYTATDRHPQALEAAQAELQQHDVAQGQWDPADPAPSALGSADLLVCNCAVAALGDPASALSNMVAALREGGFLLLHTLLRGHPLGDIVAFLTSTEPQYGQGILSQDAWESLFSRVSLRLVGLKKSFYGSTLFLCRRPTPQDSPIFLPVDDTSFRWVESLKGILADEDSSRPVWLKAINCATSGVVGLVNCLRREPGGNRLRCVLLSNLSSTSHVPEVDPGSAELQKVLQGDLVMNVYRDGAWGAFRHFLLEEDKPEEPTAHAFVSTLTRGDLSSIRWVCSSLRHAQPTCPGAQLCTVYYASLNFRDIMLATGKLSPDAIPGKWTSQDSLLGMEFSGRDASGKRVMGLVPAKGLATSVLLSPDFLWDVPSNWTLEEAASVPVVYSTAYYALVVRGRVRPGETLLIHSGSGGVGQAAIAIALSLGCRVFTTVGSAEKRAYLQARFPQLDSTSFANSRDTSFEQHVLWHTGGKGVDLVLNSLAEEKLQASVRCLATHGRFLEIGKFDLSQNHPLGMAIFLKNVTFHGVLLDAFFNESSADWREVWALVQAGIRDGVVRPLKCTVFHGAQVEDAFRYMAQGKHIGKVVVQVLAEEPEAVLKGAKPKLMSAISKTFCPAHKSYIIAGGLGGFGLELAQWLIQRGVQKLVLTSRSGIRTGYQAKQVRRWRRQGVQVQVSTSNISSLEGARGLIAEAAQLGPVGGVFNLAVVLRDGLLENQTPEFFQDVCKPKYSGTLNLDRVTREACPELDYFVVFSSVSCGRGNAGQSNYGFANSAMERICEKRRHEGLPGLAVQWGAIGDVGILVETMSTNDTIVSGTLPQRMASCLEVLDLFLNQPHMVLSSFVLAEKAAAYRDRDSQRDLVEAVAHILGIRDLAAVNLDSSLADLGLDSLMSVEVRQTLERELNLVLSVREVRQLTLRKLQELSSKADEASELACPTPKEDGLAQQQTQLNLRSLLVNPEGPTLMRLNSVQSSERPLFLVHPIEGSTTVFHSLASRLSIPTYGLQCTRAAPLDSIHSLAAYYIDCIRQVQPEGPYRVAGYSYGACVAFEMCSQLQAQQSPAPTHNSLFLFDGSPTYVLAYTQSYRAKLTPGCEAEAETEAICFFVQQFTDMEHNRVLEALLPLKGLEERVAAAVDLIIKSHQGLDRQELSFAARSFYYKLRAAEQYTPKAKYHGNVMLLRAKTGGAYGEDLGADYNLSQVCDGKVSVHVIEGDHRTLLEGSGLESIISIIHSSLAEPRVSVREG

[3] = molecular target: T2, Rac GTPase-activating protein 1 (Homo sapiens, UniProt Q9H0H5); assay: blockers of MgcRacGAP-driven Rac1 GTP hydrolysis – biochemical, ADP Hunter fluorescence, primary and confirmatory, confirmation (AID 624330); assay type: functional
T2 sequence (Q9H0H5 whole entry): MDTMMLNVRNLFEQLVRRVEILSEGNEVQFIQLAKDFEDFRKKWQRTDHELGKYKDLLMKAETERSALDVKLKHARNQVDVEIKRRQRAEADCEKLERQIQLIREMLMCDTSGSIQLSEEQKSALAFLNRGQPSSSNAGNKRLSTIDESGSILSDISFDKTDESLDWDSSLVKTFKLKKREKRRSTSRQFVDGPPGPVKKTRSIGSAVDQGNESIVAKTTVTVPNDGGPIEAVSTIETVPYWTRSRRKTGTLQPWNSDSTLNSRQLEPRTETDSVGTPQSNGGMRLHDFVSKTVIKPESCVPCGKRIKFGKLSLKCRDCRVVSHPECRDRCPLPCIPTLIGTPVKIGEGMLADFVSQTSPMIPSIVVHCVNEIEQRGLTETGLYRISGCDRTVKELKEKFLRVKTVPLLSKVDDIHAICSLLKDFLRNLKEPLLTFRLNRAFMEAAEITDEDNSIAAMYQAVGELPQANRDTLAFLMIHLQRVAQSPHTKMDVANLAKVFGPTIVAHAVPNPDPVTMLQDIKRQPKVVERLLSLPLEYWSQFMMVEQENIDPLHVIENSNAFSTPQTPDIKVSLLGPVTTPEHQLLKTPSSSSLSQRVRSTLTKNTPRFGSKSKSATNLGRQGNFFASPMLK

[4] = microbe, parasite or virus in culture; assay type: functional; conditions: Mycobacterium tuberculosis
Fatty acid synthase [5] = molecular target: T1, Fatty acid synthase; assay: inhibition of human FAS-TE enzyme activity – biochemical, kinetic fluorescence intensity, dose response (AID 624326); assay type: functional;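 also: rate of fluorescence rise from hydrolysis of a fluorogenic O-methyl fluorescein ester substrate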
[6] = HIV-1 AD8 envelope cell-cell fusion blockers – cherry-pick, dose response (AID 652062); assay type: functional, cell-based;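 also: luciferase signal from cell-cell fusion driven by HIV-1 clade B AD8 Env; potency is for inhibitors of fusion seen as a drop in luminescence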
[7] = viability loss in CEM21 cells – cell-based, CellTiter-Glo luminescence, cherry-picked, cytotoxicity control for viral fusion inhibitor project, dose response (AID 652042); assay type: functional;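 also: potency for signal decrease meaning cytotoxicity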
[8] = HEK-293T viability loss after treatment – luminescence, T-cell screen hits, cytotoxicity control for TCR NF-kB inhibitor project, dose response (AID 489026); assay type: functional, cell-based;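 also: cells exposed to compound about 14 hours before the viability readout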
Paired box protein Pax-8 = Paired box protein Pax-8 (Homo sapiens, UniProt Q06710); assay: PAX8 transcriptional activity inhibition in RMG-I – RMG-I cells, luciferase, cherry-pick, dose response (AID 687027); assay type: functional, cell-based;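 also: luciferase reporter driven by Pax8 target thyroperoxidase promoter measured by SteadyGlo luminescence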
[9] = off-target signal loss in HeLa-CEM21 co-culture – HeLa F-luc CTL cells, cherry-picked, counter-screen for HIV-1 Env fusion inhibitor project, dose response (AID 652040); assay type: functional, cell-based;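 also: potency for signal decrease marking cytotoxic or nonspecific inhibition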
[10] = blockers of HIV-1 envelope-mediated cell-cell fusion – cherry-pick, dose response (AID 652057); assay type: functional, cell-based
[11] = blockers of HIV-1 ZM109 envelope-driven cell-cell fusion – HeLa effector, CEM target cells, luciferase, cherry-pick, dose response (AID 652058); assay type: functional, cell-based;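 also: luciferase signal from HIV-1 Env mediated cell-cell fusion of effector and target cells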
Cytochrome P450 2D6 = Cytochrome P450 2D6 (Homo sapiens, UniProt P10635);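 also: CYP2D6 member of a cytochrome P450 panel assay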
Sequence of Cytochrome P450 2D6 (P10635 whole entry): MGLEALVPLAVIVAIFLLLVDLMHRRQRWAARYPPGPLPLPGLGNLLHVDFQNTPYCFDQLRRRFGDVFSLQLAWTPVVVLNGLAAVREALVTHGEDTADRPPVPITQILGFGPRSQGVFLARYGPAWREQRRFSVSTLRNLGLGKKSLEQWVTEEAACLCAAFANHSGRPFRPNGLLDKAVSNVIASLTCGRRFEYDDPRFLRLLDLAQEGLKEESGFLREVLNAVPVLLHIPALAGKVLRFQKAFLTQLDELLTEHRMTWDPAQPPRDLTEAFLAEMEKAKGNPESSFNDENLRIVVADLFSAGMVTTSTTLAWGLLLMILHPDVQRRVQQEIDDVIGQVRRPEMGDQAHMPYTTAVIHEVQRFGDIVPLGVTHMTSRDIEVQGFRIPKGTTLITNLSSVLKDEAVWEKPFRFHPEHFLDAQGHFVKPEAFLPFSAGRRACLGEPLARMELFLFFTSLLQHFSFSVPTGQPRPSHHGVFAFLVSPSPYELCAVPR

[12] = molecular target: T3, Calpain-2 catalytic subunit (Sus scrofa, UniProt P43367); assay: m-calpain protease blockers, concentration series – biochemical, fluorogenic peptide substrate, dose response (AID 1420); assay type: functional
T3 sequence (P43367 whole entry): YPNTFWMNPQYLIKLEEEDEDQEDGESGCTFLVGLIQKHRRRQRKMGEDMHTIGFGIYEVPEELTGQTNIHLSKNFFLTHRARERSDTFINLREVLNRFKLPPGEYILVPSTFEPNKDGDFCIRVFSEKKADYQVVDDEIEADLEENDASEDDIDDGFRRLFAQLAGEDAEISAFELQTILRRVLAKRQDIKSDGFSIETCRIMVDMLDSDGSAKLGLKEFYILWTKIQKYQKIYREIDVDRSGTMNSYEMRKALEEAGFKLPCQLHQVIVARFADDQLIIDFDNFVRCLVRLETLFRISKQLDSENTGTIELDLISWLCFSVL

Cytochrome P450 2C9 = Cytochrome P450 2C9 (Homo sapiens, UniProt P11712)
[13] = molecular target: T4, Endoribonuclease toxin MazF (Escherichia coli K-12, UniProt P0AE70); assay: activation of MazEF endoribonuclease cleavage – biochemical, fluorescence, single-stranded RNA substrate, uHTS hits, dose response (AID 588481); assay type: functional
T4 sequence (P0AE70 whole entry): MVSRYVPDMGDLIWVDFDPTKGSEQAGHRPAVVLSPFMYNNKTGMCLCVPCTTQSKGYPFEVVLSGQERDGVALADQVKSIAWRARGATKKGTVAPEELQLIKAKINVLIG

[14] = molecular target: T5, Corticotropin-releasing factor receptor 2/Corticotropin-releasing factor-binding protein (Homo sapiens, UniProt P24387+Q13324); assay: activators of CRF receptor 2 with binding protein – uHTS hits, confirmation (AID 602473); assay type: functional; conditions: read-out: EC50_Mean
T5 sequence (Q13324 whole entry): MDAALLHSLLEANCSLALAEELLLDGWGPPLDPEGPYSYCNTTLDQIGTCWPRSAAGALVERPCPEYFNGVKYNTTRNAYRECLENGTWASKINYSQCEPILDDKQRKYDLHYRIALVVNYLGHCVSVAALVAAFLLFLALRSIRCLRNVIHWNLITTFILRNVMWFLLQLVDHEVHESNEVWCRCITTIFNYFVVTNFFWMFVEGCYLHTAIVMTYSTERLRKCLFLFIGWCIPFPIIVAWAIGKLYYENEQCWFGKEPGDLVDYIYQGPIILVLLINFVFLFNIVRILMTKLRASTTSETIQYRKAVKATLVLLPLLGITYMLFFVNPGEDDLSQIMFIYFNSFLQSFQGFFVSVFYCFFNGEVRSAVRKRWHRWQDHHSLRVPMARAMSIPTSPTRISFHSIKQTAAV
T5 sequence (P24387 whole entry): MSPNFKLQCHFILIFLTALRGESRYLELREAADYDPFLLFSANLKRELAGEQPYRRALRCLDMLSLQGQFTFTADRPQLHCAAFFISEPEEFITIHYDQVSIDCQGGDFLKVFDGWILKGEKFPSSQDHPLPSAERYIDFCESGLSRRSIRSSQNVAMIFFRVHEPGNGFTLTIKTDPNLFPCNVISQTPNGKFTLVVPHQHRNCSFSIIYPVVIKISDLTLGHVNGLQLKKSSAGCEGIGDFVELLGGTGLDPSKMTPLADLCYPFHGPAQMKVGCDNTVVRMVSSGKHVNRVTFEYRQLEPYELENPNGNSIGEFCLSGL

[15] = molecular target: T4, Endoribonuclease toxin MazF; assay: substrate-only fluorescence increase artefacts – biochemical, single-stranded RNase substrate, counter-screen for MazEF activator project, dose response (AID 588502); assay type: functional
[16] = molecular target: T5, Corticotropin-releasing factor receptor 2/Corticotropin-releasing factor-binding protein; assay: Dose Response confirmation of uHTS hits for small molecule antagonists of the CRF-binding protein and CRF-R2 receptor complex.; assay type: functional; conditions: read-out: IC50_Mean
[17] = molecular target: T6, Type-1 angiotensin II receptor (Homo sapiens, UniProt P30556); assay: antagonism of angiotensin II type 1 receptor – cell-based, uHTS hits, selectivity assay for APJ receptor antagonist project, dose response (AID 463214); assay type: functional;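 also: antagonist potency against angiotensin II stimulated AT1 response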
T6 sequence (P30556 whole entry): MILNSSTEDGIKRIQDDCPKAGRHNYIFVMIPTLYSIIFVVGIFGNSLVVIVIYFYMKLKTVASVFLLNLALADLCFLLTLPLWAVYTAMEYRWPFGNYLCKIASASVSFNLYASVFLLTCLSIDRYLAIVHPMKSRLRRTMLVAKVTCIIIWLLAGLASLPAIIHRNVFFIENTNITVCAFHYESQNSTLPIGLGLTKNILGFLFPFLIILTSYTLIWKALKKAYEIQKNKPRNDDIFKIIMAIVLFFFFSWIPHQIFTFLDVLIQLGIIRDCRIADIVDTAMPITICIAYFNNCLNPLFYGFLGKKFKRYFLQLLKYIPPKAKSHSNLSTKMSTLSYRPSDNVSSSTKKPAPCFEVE

Beta-galactosidase = Beta-galactosidase (Escherichia coli, UniProt Q8VNN2); assay: PubChem AID 485352; assay type: functional
Nonstructural protein 1 = Nonstructural protein 1 (Influenza A virus, UniProt Q194T2); assay type: functional, Influenza A virus (A/California/07/2009(H1N1))
Streptococcus = assay: GAS UMAA2166 growth inhibition – luminescence, BacTiterGlo, counter-screen for streptokinase expression inhibitor project, dose response (AID 1915); assay type: functional, organism-based;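 also: potency for reduction of bacterial viability or growth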
[18] = system: Streptococcus sp. 'group A'; assay: Streptococcus pyogenes SK(-)GAS viability under kanamycin – luminescence, BacTiterGlo, confirmation, counter-screen for streptokinase expression inhibitor project, dose response (AID 1900); assay type: functional, organism-based
Streptokinase A = molecular target: T7, Streptokinase A (Streptococcus pyogenes serotype M1, UniProt P10520); assay: viability-normalized secreted streptokinase activity reduction – plasminogen activation absorbance, OD405, dose response (AID 1914); assay type: functional, Streptococcus pyogenes M1 GAS;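 also: secreted streptokinase activity via plasminogen activation per viability signal from cell pellet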
T7 sequence (P10520 whole entry): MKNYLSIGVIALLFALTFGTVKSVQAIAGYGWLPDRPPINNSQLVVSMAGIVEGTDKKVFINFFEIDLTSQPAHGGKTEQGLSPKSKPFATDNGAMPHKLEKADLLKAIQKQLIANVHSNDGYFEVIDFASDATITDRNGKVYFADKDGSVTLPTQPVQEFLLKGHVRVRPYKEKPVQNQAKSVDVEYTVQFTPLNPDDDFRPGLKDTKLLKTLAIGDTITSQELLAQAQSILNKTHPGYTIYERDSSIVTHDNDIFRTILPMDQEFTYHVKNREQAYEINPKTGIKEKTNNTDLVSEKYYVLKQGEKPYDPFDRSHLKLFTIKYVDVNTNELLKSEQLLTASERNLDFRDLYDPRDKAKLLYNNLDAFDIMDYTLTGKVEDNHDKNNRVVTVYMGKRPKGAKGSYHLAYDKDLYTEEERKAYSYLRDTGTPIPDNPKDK

[19] = molecular target: Ras and Rab interactor 1/Tyrosine-protein kinase ABL1 (Homo sapiens, UniProt P00519+Q13671); assay type: functional;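 also: biochemical TR-FRET dose-response test measuring inhibition of binding between Rin1 and Abl proteins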
Sequence of Ras and Rab interactor 1/Tyrosine-protein kinase ABL1 (P00519 whole entry): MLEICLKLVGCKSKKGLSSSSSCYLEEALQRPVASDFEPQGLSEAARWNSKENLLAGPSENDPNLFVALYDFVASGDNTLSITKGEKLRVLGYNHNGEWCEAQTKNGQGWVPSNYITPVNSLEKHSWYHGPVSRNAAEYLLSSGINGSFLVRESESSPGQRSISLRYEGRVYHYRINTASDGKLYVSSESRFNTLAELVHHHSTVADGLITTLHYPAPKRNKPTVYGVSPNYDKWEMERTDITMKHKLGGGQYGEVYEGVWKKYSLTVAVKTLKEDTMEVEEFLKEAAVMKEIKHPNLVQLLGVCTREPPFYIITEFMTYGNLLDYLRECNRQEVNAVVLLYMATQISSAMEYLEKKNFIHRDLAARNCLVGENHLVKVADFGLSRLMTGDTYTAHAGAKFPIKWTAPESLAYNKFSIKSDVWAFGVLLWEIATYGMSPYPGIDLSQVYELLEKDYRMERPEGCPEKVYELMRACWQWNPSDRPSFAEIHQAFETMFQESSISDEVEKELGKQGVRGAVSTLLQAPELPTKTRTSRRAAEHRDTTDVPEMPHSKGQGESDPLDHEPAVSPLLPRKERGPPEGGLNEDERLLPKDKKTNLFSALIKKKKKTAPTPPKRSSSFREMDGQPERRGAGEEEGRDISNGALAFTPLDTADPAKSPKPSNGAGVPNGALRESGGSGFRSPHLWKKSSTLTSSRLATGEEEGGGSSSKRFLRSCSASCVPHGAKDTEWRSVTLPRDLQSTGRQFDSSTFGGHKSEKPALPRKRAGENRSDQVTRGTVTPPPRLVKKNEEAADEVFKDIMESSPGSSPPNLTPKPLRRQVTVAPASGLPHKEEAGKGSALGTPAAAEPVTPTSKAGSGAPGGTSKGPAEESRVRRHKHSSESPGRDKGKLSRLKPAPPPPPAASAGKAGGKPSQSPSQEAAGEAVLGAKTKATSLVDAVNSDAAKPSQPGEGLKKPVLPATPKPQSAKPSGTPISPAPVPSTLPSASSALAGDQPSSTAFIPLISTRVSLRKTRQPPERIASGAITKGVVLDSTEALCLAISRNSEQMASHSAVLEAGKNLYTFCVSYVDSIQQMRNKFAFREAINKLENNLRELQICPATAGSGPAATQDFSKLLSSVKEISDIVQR
Sequence of Ras and Rab interactor 1/Tyrosine-protein kinase ABL1 (Q13671 whole entry): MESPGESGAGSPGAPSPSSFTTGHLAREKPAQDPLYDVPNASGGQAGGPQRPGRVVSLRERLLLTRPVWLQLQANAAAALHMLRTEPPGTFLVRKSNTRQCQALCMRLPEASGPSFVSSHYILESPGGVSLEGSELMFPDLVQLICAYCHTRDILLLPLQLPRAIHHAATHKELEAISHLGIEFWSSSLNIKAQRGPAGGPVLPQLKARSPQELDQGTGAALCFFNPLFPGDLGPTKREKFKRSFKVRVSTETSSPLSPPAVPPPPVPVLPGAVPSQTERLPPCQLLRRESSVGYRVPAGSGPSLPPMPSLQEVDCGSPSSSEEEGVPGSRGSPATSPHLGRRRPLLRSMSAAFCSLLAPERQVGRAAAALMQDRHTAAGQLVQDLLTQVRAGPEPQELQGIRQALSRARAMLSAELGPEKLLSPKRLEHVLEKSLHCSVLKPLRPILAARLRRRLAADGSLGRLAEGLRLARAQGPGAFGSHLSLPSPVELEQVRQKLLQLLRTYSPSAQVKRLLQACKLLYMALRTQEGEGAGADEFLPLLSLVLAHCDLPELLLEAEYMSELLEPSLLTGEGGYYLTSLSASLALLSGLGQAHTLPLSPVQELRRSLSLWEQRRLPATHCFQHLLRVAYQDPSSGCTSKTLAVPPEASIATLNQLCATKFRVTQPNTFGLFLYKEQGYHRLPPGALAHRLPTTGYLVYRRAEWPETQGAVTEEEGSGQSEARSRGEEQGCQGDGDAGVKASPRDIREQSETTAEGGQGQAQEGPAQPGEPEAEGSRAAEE

cells [20] = assay type: functional, cell-based
cells [21] = assay type: functional, cell-based; remark: listed apart in the source

COc1cc(/C=N/N(C)c2ccccc2)cc(Cl)c1O
CC50 [1]: 100 µM (active) | IC50 (Fatty acid synthase [2]): 4.5 µM (active) | IC50 [3]: 38.2 µM (active) | CC50 [4]: > 40 µM (active) | IC50 (Fatty acid synthase [5]): 5.46 µM (active)

COc1cc(-c2c(-c3cc(OC)c(OC)c(OC)c3)noc2C)ccc1F
AC50 [6]: 29.7 µM (active) | AC50 [7]: 21.3 µM (active) | IC50 [8]: 75.9 µM (inactive) | AC50 (Paired box protein Pax-8): 2.78 µM (active)

CCC(C(=O)c1ccccc1)N(C(=O)c1ccccc1Cl)N1C(=O)C2C3C=CC(C3)C2C1=O (stereo not given)
AC50 [6]: 27.5 µM (active) | AC50 [9]: 7.95 µM (active) | AC50 [10]: 4.55 µM (active) | AC50 [11]: 6.01 µM (active) | AC50 (Cytochrome P450 2D6): 7.08 µM (inconclusive) | IC50 [12]: 24.3 µM (not active) | AC50 (Cytochrome P450 2C9): 10 µM (inconclusive)

CCOC(=O)/C(=N\Nc1ccc(C(C)=O)cc1)c1csc(Nc2ccccc2)n1
EC50 [13]: > 99 µM (inactive) | EC50 [14]: 18.3 µM (active) | EC50 [15]: 38.1 µM (inactive)

CC(C)(C)n1nnnc1C(c1cccnc1)N(Cc1ccccc1)Cc1cccs1 (stereo not given)
AC50 [6]: 17.5 µM (active) | AC50 [9]: 8.29 µM (active) | AC50 [10]: 5.51 µM (active) | AC50 [7]: 52.5 µM (active) | AC50 [11]: 7 µM (active)

Cc1ccccc1Cn1cccc1/C=C1/C(=N)N2C=CSC2=NC1=O
IC50 [16]: > 47.1 µM (inactive) | EC50 [13]: > 99 µM (inactive) | EC50 [14]: > 53 µM (inactive) | EC50 [15]: > 99 µM (inactive)

CCOC(=O)N1CCN(C(=O)C[C@H]2C[C@@]3(C(=O)OC)C(=C[C@H](C(C)(C)C)O[C@@H]3C)N(CCC3=CCCCC3)C2=O)CC1
AC50 [6]: 3.46 µM (active) | AC50 [9]: 4.21 µM (active) | AC50 [10]: 2.49 µM (active) | AC50 [7]: 25.6 µM (active) | AC50 [11]: 3.45 µM (active)

CCSc1nnc(NC(=O)c2ccccn2)s1
IC50 [17]: 16.8 µM (active) | EC50 (Beta-galactosidase): > 40 µM (inactive) | IC50 (Nonstructural protein 1): 10.6 µM (active) | EC50 (Streptococcus): 15.3 µM (active) | EC50 [18]: 6.34 µM (active) | EC50 (Streptokinase A): > 150 µM (not active)

C[C@@H]1CCCCO[C@@H](CN(C)S(=O)(=O)c2cccs2)[C@@H](C)CN([C@H](C)CO)C(=O)c2cc(NS(=O)(=O)c3ccccc3)ccc2O1
IC50 [19]: 1.27 µM (active)

Cc1ccc(-c2cnc(NCc3cc4c(cc3[N+](=O)[O-])OCO4)n2C)cc1C
CC50 [1]: 100 µM (active) | IC50 [3]: 77.6 µM (active)

CCCOc1ccc(/C=N/NC(=O)CSc2ccccn2)cc1OC
EC50 (cells [20]): > 350 µM (not active) | IC50 [19]: 12 µM (inactive) | EC50 (cells [21]): > 350 µM (not active)
